Columns and labels:
[1] = target: Focal adhesion kinase 1 (Homo sapiens, UniProt Q05397); test: Selectivity interaction (KinaseProfiler screening (Millipore)) EUB0000601a PTK2; conditions: at 3 µM
[2] = target: Activin receptor type-2A (Homo sapiens) (UniProt P27037); conditions: at 10 µM
[3] = target: Aurora kinase B (Homo sapiens, UniProt Q96GD4); test: Selectivity interaction (Kinase panel (literature)) EUB0001199aCl AURKB; conditions: at 1 µM
[4] = target: Epidermal growth factor receptor (Homo sapiens, UniProt P00533); test: Selectivity interaction (Kinase panel (literature)) EUB0001199aCl EGFR; conditions: at 1 µM
[5] = target: Macrophage colony-stimulating factor 1 receptor (Homo sapiens) (UniProt P07333); test: Selectivity interaction (KinomeScan (DiscoverX)) EUB0000607a CSF1R; conditions: at 10 µM
[6] = target: Cyclin-dependent kinase 4/cyclin D1 (Homo sapiens) (UniProt P11802+P24385); test: (§1) Selectivity interaction (KinomeScan (DiscoverX)) EUB0000607a CDK4; assay type: protein-complex assay; conditions: at 10 µM
[7] = target: CDK4/Cyclin D3 (Homo sapiens) (UniProt P11802+P30281); test: as §1; assay type: protein-complex assay; conditions: at 10 µM
[8] = target: Serine/threonine-protein kinase 38-like (Homo sapiens) (UniProt Q9Y2H1); test: Selectivity interaction (KinomeScan (DiscoverX)) EUB0000607a STK38L; conditions: at 10 µM
Chain of Serine/threonine-protein kinase 38-like (Homo sapiens) (Q9Y2H1 2-464 limits assumed): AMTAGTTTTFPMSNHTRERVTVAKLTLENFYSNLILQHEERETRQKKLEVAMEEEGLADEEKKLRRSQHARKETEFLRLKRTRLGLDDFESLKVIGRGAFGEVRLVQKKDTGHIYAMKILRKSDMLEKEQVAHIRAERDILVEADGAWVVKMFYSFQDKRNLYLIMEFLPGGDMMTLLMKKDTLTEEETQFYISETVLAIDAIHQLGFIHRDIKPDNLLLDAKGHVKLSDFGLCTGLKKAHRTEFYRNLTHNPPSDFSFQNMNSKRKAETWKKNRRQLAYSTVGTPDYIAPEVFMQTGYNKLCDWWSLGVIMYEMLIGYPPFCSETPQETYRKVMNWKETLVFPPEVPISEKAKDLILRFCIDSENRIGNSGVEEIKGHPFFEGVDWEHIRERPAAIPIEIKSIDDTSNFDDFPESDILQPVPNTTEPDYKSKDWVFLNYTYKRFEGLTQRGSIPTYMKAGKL

[9] = target: Mitotic checkpoint serine/threonine-protein kinase BUB1 (Homo sapiens, UniProt O43683); test: Selectivity interaction (KinomeScan (DiscoverX)) EUB0000607a BUB1; conditions: at 10 µM
Chain of Mitotic checkpoint serine/threonine-protein kinase BUB1 (O43683 whole entry, looked up): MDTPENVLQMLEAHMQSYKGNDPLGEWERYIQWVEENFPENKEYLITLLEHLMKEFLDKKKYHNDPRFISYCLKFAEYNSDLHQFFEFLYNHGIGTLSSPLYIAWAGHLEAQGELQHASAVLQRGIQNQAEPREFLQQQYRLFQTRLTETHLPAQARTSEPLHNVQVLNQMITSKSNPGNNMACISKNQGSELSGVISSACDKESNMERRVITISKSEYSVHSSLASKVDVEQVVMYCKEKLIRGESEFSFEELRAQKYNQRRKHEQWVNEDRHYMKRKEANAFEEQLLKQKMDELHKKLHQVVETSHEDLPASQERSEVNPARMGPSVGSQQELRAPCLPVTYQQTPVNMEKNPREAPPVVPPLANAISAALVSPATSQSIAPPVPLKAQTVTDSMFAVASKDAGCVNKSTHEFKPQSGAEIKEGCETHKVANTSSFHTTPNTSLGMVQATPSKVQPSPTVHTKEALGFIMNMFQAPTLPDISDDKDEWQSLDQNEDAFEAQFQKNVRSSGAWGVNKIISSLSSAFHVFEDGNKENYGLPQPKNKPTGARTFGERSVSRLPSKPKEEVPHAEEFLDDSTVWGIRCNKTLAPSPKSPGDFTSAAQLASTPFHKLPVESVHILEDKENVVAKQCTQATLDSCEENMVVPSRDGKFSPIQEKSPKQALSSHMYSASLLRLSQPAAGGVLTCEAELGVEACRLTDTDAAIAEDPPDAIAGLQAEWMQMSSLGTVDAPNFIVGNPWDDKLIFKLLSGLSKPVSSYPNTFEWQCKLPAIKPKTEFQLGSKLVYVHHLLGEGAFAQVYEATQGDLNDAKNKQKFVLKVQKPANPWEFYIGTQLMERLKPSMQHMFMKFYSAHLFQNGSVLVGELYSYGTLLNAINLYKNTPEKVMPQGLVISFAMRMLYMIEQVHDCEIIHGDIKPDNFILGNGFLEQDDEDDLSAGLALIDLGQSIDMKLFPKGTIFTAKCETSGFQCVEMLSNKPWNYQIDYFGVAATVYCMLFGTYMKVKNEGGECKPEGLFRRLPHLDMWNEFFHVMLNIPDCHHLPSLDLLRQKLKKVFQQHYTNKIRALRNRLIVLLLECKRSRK

[10] = target: Tyrosine-protein kinase Fgr (Homo sapiens) (UniProt P09769); test: Selectivity interaction (KinomeScan (DiscoverX)) EUB0000607a FGR; conditions: at 10 µM
[11] = target: Bone morphogenetic protein receptor type-1B (Homo sapiens, UniProt O00238); test: Selectivity interaction (KinomeScan (DiscoverX)) EUB0000607a BMPR1B; conditions: at 10 µM
[12] = test system: Tyrosine-protein kinase ABL1 (Homo sapiens), P00519 [T315I]; test: Selectivity interaction (KinomeScan (DiscoverX)) EUB0000045b ABL1; conditions: at 10 µM
[13] = target: Serine/threonine-protein kinase NIM1 (Homo sapiens, UniProt Q8IY84); test: Selectivity interaction (KinomeScan (DiscoverX)) EUB0000595a NIM1K; conditions: at 10 µM
Chain of Serine/threonine-protein kinase NIM1 (Q8IY84 whole entry): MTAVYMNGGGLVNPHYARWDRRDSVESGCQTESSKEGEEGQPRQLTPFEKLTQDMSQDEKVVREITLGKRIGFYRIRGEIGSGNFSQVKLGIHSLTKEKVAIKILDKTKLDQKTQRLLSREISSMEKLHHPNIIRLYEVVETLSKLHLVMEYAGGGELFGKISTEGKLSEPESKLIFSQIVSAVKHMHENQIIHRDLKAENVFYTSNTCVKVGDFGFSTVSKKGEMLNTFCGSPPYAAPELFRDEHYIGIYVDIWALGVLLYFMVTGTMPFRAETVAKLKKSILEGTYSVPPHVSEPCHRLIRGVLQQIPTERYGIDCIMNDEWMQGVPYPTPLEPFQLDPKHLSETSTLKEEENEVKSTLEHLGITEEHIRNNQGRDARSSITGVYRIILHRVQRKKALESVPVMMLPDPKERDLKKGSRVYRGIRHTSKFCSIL

[14] = target: G protein-coupled receptor kinase 4 (Homo sapiens) (UniProt P32298); test: Selectivity interaction (KinomeScan (DiscoverX)) EUB0000595a GRK4; conditions: at 10 µM
[15] = target: Misshapen-like kinase 1 (Homo sapiens, UniProt Q8N4C8); test: Selectivity interaction (Upstate Kinase Profiler service (Millipore)) EUB0000056c MINK1; conditions: at 1 µM
[16] = target: T1, STE20-related kinase adapter protein alpha (Homo sapiens) (UniProt Q7RTN6); test: Selectivity interaction (Kinase panel (KiNativ target engagement assay in Jurkat cells)) EUB0001635a STRADA; assay type: cell-based; conditions: Selectivity number of off-targets 0.0, Selectivity number of targets 233.0, Source Knowledge https://www.sciencedirect.com/science/article/pii/S2451945619300674?via%3Dihub, at 1 µM
T1 sequence (whole entry): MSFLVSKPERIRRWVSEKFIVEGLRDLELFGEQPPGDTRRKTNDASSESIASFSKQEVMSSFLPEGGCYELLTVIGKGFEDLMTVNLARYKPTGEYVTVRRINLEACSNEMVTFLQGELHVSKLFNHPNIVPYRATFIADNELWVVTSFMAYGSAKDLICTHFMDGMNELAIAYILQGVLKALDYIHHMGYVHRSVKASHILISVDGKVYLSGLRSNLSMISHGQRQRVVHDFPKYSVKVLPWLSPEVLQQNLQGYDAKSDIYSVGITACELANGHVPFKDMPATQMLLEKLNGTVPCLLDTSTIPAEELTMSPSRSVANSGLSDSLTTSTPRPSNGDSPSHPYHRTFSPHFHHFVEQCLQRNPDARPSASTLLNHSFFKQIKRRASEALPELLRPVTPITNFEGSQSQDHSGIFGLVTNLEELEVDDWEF

[17] = target: Serine/threonine-protein kinase PLK3 (Homo sapiens, UniProt Q9H4B4); conditions: at 10 µM
Chain of Serine/threonine-protein kinase PLK3 (Q9H4B4 whole entry, looked up, canonical isoform): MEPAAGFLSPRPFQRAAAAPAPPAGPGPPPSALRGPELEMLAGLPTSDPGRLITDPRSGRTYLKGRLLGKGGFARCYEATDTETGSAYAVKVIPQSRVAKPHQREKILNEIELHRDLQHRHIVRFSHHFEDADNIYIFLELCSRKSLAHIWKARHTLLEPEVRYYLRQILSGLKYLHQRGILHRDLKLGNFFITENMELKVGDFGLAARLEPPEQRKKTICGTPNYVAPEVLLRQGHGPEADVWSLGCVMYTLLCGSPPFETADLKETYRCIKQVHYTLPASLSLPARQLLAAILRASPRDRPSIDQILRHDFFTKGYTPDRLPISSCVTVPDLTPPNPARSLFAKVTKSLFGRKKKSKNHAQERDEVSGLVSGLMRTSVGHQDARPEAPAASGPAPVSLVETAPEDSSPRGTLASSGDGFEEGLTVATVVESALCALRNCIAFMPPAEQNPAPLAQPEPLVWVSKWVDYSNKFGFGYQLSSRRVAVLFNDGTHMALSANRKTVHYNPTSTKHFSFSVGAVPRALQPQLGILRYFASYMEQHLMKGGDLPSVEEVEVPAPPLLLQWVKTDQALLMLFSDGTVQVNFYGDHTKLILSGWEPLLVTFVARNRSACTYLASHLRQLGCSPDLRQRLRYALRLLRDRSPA

[18] = target: Casein kinase I isoform epsilon (Homo sapiens, UniProt P49674); test: Selectivity interaction (KinomeScan (DiscoverX)) EUB0001049a CSNK1E; conditions: at 1 µM
Chain of Casein kinase I isoform epsilon (P49674 whole entry, looked up, canonical isoform): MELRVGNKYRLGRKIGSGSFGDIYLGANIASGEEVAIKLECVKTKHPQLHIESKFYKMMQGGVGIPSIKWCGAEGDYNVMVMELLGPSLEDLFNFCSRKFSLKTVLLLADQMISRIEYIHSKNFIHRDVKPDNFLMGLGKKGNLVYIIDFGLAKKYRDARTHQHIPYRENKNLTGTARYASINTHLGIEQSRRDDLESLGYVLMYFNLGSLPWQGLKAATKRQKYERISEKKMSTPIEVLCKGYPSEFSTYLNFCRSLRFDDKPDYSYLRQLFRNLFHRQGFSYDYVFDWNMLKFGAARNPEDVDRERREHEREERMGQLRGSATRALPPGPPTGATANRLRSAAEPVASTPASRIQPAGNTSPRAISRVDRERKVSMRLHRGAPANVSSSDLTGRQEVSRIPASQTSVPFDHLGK

[19] = target: Sodium-dependent serotonin transporter (Homo sapiens, UniProt P31645); test: Selectivity interaction (Serotonin transporter site assay, human recombinant ) EUB0000877a SLC6A4
Chain of Sodium-dependent serotonin transporter (P31645 whole entry): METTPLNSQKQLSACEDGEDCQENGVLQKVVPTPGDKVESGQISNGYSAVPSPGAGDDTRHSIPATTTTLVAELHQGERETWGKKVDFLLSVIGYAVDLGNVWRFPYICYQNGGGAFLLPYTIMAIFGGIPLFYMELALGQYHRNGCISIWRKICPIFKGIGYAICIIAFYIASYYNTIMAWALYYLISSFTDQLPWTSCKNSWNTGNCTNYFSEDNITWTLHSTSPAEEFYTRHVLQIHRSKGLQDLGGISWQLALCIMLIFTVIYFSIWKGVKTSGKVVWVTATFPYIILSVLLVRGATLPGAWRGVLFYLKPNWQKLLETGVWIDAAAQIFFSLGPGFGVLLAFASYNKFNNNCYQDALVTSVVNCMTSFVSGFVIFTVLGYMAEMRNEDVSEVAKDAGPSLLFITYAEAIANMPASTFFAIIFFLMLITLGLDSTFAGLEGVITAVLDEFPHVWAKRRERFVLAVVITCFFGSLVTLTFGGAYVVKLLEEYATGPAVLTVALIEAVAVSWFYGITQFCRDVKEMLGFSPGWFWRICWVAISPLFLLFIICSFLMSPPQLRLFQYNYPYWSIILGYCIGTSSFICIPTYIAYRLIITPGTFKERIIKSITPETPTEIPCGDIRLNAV

[20] = target: Wee1-like protein kinase (Homo sapiens) (UniProt P30291); test: Selectivity interaction (KinomeScan (DiscoverX)) EUB0000092b WEE1; conditions: at 10 µM
[21] = target: T2, Interleukin-1 receptor-associated kinase 3 (Homo sapiens) (UniProt Q9Y616); test: Selectivity interaction (KinomeScan (DiscoverX)) EUB0001550a IRAK3; conditions: at 1 µM
T2 sequence (whole entry): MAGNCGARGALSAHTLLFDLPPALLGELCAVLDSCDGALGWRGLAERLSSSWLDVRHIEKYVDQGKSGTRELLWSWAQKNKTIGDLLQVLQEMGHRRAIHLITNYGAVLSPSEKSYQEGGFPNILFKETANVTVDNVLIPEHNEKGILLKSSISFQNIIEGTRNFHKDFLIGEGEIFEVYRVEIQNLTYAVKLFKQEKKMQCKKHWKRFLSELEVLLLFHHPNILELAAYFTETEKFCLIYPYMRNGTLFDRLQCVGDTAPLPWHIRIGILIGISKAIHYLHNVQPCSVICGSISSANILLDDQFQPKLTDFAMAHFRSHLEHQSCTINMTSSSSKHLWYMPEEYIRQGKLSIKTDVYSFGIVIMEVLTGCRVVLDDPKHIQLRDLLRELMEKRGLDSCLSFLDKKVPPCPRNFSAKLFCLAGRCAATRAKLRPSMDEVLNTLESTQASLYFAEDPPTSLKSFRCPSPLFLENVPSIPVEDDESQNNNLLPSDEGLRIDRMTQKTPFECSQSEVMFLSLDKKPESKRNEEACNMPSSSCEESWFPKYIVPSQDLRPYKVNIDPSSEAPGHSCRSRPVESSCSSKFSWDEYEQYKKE

[22] = target: Tyrosine-protein kinase Lyn (Homo sapiens, UniProt P07948); test: Selectivity interaction (Kinase panel (Z-LYTE Assay)) EUB0001632a LYN; conditions: at 10 µM
Chain of Tyrosine-protein kinase Lyn (P07948 2-512 limits assumed): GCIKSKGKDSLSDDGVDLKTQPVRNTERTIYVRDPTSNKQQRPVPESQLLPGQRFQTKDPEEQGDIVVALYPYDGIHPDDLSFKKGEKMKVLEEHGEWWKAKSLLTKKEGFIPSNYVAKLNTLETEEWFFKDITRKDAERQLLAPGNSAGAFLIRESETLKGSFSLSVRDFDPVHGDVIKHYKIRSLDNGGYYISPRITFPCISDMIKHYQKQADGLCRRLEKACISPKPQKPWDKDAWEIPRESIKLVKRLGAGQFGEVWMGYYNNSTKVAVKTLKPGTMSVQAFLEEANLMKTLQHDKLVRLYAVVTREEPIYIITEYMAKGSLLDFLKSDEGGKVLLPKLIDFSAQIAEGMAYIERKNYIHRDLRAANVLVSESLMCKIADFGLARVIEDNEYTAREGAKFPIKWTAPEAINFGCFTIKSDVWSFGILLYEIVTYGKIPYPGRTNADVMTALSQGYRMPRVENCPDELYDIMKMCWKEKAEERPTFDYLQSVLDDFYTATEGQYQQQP

[23] = target: Mitogen-activated protein kinase 8 (Homo sapiens, UniProt P45983); test: Selectivity interaction (Kinase screening (Upstate/Millipore)) EUB0000604a MAPK8
Chain of Mitogen-activated protein kinase 8 (P45983 whole entry): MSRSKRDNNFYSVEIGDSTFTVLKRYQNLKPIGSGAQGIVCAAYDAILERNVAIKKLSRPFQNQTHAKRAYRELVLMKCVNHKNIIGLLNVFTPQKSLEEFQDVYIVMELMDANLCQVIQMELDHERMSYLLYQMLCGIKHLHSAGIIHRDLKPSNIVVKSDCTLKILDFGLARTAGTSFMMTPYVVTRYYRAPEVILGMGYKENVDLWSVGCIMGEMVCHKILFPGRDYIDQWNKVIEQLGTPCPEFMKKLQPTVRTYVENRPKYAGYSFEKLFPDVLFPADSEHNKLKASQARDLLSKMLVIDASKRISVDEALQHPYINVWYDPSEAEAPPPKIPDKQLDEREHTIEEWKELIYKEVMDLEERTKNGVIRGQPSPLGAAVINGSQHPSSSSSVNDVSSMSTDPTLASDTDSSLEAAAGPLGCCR

Chain of Aurora kinase B (Q96GD4 whole entry): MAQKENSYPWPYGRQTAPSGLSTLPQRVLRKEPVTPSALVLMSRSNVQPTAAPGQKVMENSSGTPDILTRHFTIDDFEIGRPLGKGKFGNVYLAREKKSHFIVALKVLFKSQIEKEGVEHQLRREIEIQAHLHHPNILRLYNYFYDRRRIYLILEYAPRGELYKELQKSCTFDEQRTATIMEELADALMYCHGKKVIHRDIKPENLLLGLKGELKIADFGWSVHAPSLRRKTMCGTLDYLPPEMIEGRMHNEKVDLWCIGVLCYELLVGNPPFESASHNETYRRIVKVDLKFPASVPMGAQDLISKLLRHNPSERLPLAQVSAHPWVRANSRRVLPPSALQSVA

`CCc1cc(Nc2nccc(-c3c(-c4ccc(OC)c(C(=O)Nc5c(F)cccc5F)c4)nc4ccccn34)n2)c(OC)cc1N1CCC(N2CCN(S(C)(=O)=O)CC2)CC1` was tested, and the % of inhibition [1] was 51%.
`CCN(CC)CCCCNc1ncc2cc(-c3cc(OC)cc(OC)c3)c(NC(=O)NC(C)(C)C)nc2n1` showed a % of control [2] of 100%.
In the case of `CN1Cc2nccc(-c3cn(C)nc3-c3ccc(F)cc3)c2C1=O`, the % of inhibition [3] is reported as 4% and the % of inhibition [4] is reported as 8%.
`CNC(=O)Nc1ccc(-c2nc(N3CC4CCC(C3)O4)c3cnn(C4CCC5(CC4)OCCO5)c3n2)cc1` showed a % of control [5] of 100%, a % of control [6] of 90% and a % of control [7] of 92%. The % of control [8] was 100%, the % of control [9] was 52% and the % of control [10] was 100%. The % of control [11] was 93%.
`C=CC(=O)Nc1cc(-n2c(=O)ccc3cnc4ccc(-c5ccc(NS(C)(=O)=O)cc5)cc4c32)ccc1C` showed a % of control [12] of 100%.
`COCC(=O)NC/C=C/c1ccc2ncnc(Nc3ccc(Oc4ccc(C)nc4)c(C)c3)c2c1` [CP-724714] gave a % of control [13] of 87% and a % of control [14] of 100%.
`Cc1ccc(-c2ccc3c(ccc4sc5c(c43)NC[C@@H](C)NC5=O)n2)cn1` showed a % of inhibition [15] of 11%.
`C=CC(=O)Nc1ccc(C(=O)Nc2[nH]nc3c2CN(C(=O)N[C@H](CN(C)C)c2ccccc2)C3(C)C)cc1` showed a % of engagement [16] of -20.7%.
`Cc1cc([C@@H](C)Nc2ccccc2C(=O)O)c2nc(N3CCOCC3)cc(=O)n2c1` [AZD-6482] showed a % of control [17] of 89%.
`COc1cc(Nc2nc(C)cc(-c3cnn4nc(OC)ccc34)n2)cc(C(F)(F)F)c1` was tested, and the % of control [18] was 80%.
`CCC(=O)N1CC[C@H](Nc2ncnc3c2CN(c2cnc(OC)c(C(F)(F)F)c2)CC3)C1` [LENIOLISIB] showed an IC50 [19] of over 30 µM.
Work on `CCC(=O)N1CCN(c2ccc(-n3c(=O)ccc4cnc5ccc(-c6cnc7ccccc7c6)cc5c43)cc2C(F)(F)F)CC1` yielded a % of control [20] of 42%.
Compound `CN(C)CC#Cc1ccc2[nH]c3c(c2c1)-c1nc(N)ncc1CCC3` has a % of control [21] of 9.2%.
Compound `Cn1cc(-n2cnc3c(NCc4nc5cc(Cl)c(Cl)cc5[nH]4)nc(N4CCOCC4)nc32)cn1` has a % of control [22] of 8.19%.
With `Cc1cnc(Nc2ccc(F)cc2Cl)nc1-c1c[nH]c(C(=O)N[C@H](CO)c2cccc(Cl)c2)c1` the % of inhibition [23] was 34%.

Reference: ChEMBL document CHEMBL5465560, “Selectivity Literature for EUbOPEN Chemogenomic Library” (2024)
